{
  "source": "patent US20180311276A1",
  "about": "“Method and Apparatus for Treating Oral Disease in Animals” (priority 2015, published 2018)",
  "key": {"thyroid hormone levels": {"system": "thyroid hormone levels", "test": "thyroid hormone levels in the two shelter clinical trials", "assay_type": "in vivo, dogs", "conditions": "iodine added to dog drinking water", "method": "(§1) Plaque formation leads to gingivitis and periodontal disease and often progresses to systemic disease and death in dogs. Clinical trial 1 was conducted at a humane shelter with all dogs enclosed in kennels using a manually added drug vs. placebo. Subsequently, Clinical Trial 2 was conducted at a humane shelter with all dogs enclosed in kennels but in this case the iodine vs placebo was administered via an automated system.\nFurthermore, neither dog weight or age affected the plaque prevention effect. Finally, the iodine added to dog drinking water had no effect on dog thyroid hormone levels."}, "thyroid level (T4)": {"system": "thyroid level (T4)", "test": "thyroid level (T4) in the Example 1 clinical trial", "assay_type": "in vivo, dogs", "conditions": "0.5 or 1.0 microgram/mL in drinking water, 28 days", "from_the_text": "Each dog was weighed, blood drawn for determination of thyroid level and a qualitative assessment was made for halitosis using a 0, 1, 2, 3, 4 and 5 scale with 0 indicating no discernible “doggie breath produced by hydrogen sulfide H2S” and 5 being very noxious, strong odor. Dogs were anesthetized, marginal tooth-gum line measurements were taken for proscribed teeth (required for veterinary oral health counsel certification of efficacy at reducing plaque in dogs found at www.VOHC.com) and dog teeth were cleaned to remove all plaque and tarter. All dogs were given either drug or placebo each morning for 28 days. Journal entries were kept for each dog to monitor for compliance, observations regarding dog drinking behavior and comments regarding dog breath/odor. Once each dog drank all the water i.e., 1000 mL the water bowl was filled with fresh water. […] At the end of the study i.e., 28 days each dog was sedated, breath was evaluated and teeth were stained with disclosing solution that is proven to stain plaque red. The attending veterinarian who measured the initial marginal tooth-gum line measured all the proscribed teeth using the published technique (Scherl D S, Coffman L, et al. Validation of a New Dental Plaque Quantification Method in Dogs. J Vet Dent 24(1); 14-20, 2007). All values from all 20 dogs were recorded and whole mouth scores were calculated."}, "[1]": {"system": "oral bacteria responsible for plaque formation", "test": "kill of oral bacteria responsible for plaque formation", "assay_type": "cell-based", "conditions": "2 micrograms/mL", "from_the_text": "(§2) The inventor evaluated a variety elemental iodine concentrations e.g., 0.5, 1.0, 2.0, 3, 5, 10, 15 and 20 micrograms/mL and discovered that dogs preferred drinking water with elemental iodine below 2 micrograms/mL. We evaluated the ability of elemental iodine to kill oral bacteria at a concentration of 2 micrograms/mL responsible for plaque formation and discovered that elemental iodine was effective at this dose i.e., microbial kill >3 logs/min. We evaluated lower concentrations of elemental iodine e.g., 0.05, 0.1 and 0.5 micrograms/mL. […] We hypothesized that molecular iodine concentrations below 0.5 micrograms/mL may not be not effective in killing oral bacteria responsible for plaque formation. We confirmed this assumption by performing microbial analysis. The inventor sent samples of two part preparations e.g., 1 vial with water and a second vial with iodine in 100% ethyl alcohol. These were combined before analysis so that the final concentrations were 0.05, 0.1, 0.5, 1.0, 2.0 and 5.0 micrograms/mL. The test organism was a known plaque-producing bacterium i.e., Neisseria spp. A contract research laboratory in Texas i.e., MicroChem Laboratories performed the use dilution experiments."}, "Neisseria spp.": {"system": "Neisseria spp.", "test": "use dilution experiments (MicroChem Laboratories)", "assay_type": "cell-based", "conditions": "for reduction in microbial concentration / kill: 1 minute time point", "from_the_text": "as §2"}, "[2]": {"test": "saturation of absolute alcohol with molecular iodine", "assay_type": "physicochemical", "from_the_text": "One embodiment of the present invention features a carrier liquid ethanol. The ethanol is preferably devoid of water, as in absolute alcohol. As used herein, the term “absolute alcohol” refers to alcohol with no or limited water content as such term is used in a commercial context. One formulation molecular iodine having a concentration in absolute alcohol in the range of 0.1 to 1.0 Gm molecular iodine in 13 milliliters of absolute alcohol. Molecular iodine saturates absolute alcohol at a concentration of 1 Gm per 13 milliliters of absolute alcohol. A further embodiment of the present formulation features a molecular sieve particle of between 2 and 4 A which captures and adsorbs water."}, "plaque": {"system": "plaque", "test": "double-blind, placebo controlled clinical trial in 20 adult dogs, whole mouth plaque scores (Example 1)", "assay_type": "in vivo", "conditions": "28 days", "method": "First, a double-blind, placebo controlled clinical trial was conducted using 20 adult dogs of mixed breed and weights. The dogs were randomly divided into two groups. […] Group 1 dogs were further divided into two groups of five dogs. Five received molecular iodine [I2] dissolved into 1000 mL water to a final concentration of 0.5 microgram/mL. The second group of five dogs received molecular iodine [I2] dissolved into 1000 mL water to a final concentration of 1.0 microgram/mL. The placebo group of 10 dogs received no iodine. […]\nEach dog was weighed, blood drawn for determination of thyroid level and a qualitative assessment was made for halitosis using a 0, 1, 2, 3, 4 and 5 scale with 0 indicating no discernible “doggie breath produced by hydrogen sulfide H2S” and 5 being very noxious, strong odor. […] At the end of the study i.e., 28 days each dog was sedated, breath was evaluated and teeth were stained with disclosing solution that is proven to stain plaque red. The attending veterinarian who measured the initial marginal tooth-gum line measured all the proscribed teeth using the published technique (Scherl D S, Coffman L, et al. Validation of a New Dental Plaque Quantification Method in Dogs. J Vet Dent 24(1); 14-20, 2007). All values from all 20 dogs were recorded and whole mouth scores were calculated."}, "[3]": {"system": "plaque formation on teeth", "test": "two double-blind, placebo-controlled clinical trials at a humane shelter, plaque prevention", "assay_type": "in vivo, dogs", "method": "as §1\nWe conducted two double-blind, placebo-controlled clinical trials using both 0.5 and 1.0 micrograms elemental iodine in water."}, "[4]": {"system": "halitosis (volatile sulfur compounds, hydrogen sulfide)", "test": "halitosis secondary end point: Halimeter VSC readings and qualitative odor 0-5 scale (Example 1)", "assay_type": "in vivo, dogs", "from_the_text": "Each dog was weighed, blood drawn for determination of thyroid level and a qualitative assessment was made for halitosis using a 0, 1, 2, 3, 4 and 5 scale with 0 indicating no discernible “doggie breath produced by hydrogen sulfide H2S” and 5 being very noxious, strong odor. Dogs were anesthetized, marginal tooth-gum line measurements were taken for proscribed teeth (required for veterinary oral health counsel certification of efficacy at reducing plaque in dogs found at www.VOHC.com) and dog teeth were cleaned to remove all plaque and tarter. All dogs were given either drug or placebo each morning for 28 days. Journal entries were kept for each dog to monitor for compliance, observations regarding dog drinking behavior and comments regarding dog breath/odor. Once each dog drank all the water i.e., 1000 mL the water bowl was filled with fresh water. The following day all the remaining water was discarded and the clinical trial sample was added to the water bowl. At the end of the study i.e., 28 days each dog was sedated, breath was evaluated and teeth were stained with disclosing solution that is proven to stain plaque red. The attending veterinarian who measured the initial marginal tooth-gum line measured all the proscribed teeth using the published technique (Scherl D S, Coffman L, et al. Validation of a New Dental Plaque Quantification Method in Dogs. J Vet Dent 24(1); 14-20, 2007). All values from all 20 dogs were recorded and whole mouth scores were calculated.\nThe halitosis secondary end point was more complicated since the attempt was made to use an Interscan Corporation Halimeter® that quantitatively measures volatile sulfur compounds (VSC) in the oral cavity. The Halimeter was designed for use by dentists and humans. One of the requirements to obtain reliable readings is for the conscious human subject to blow into a straw connected into the Halimeter. The problem encountered with dogs while under anesthesia is obtaining a valid reading since they are unable to “blow” into the straw. Early dog readings were erratic and turned out to be unreliable. […]"}},
  "data": [
    {"compound": "II", "note": "[molecular iodine]", "values": [
      {"measurement": "effect on dog thyroid hormone levels", "setting": "thyroid hormone levels", "value": "no effect"},
      {"measurement": "T4 levels after treatment", "setting": "thyroid level (T4)", "value": "remained within normal range"},
      {"measurement": "microbial kill", "setting": "[1]", "value": "> 3", "unit": "logs/min"},
      {"measurement": "antimicrobial efficacy", "setting": "Neisseria spp.; 0.05 micrograms/mL", "value": "no antimicrobial efficacy"},
      {"measurement": "antimicrobial efficacy", "setting": "Neisseria spp.; 0.1 micrograms/mL", "value": "no antimicrobial efficacy"},
      {"measurement": "reduction in microbial concentration", "setting": "Neisseria spp.; 0.5 microgram/mL", "value": 100, "unit": "fold"},
      {"measurement": "reduction in microbial concentration", "setting": "Neisseria spp.; 1.0 microgram/mL", "value": 1000, "unit": "fold"},
      {"measurement": "kill", "setting": "Neisseria spp.; 2.0 microgram/mL", "value": "> 4", "unit": "logs"},
      {"measurement": "kill", "setting": "Neisseria spp.; 5.0 microgram/mL", "value": "> 4", "unit": "logs"},
      {"measurement": "killing oral bacteria", "setting": "Neisseria spp.; concentrations below 0.5 micrograms/mL, independent use dilution experiments", "value": "not effective"},
      {"measurement": "concentration at which molecular iodine saturates absolute alcohol", "setting": "[2]", "value": "1 Gm per 13 milliliters of absolute alcohol"},
      {"measurement": "whole mouth plaque scores from Day 0 to Day 28, Treated dogs compared to Placebo dogs", "setting": "plaque; 0.5 or 1.0 microgram/mL in 1000 mL drinking water, once daily", "value": "statistically significant reduction"},
      {"measurement": "mean plaque score, dogs receiving 0.5 microgram/mL versus 1.0 micrograms/mL", "setting": "plaque; drinking water", "value": "no difference"},
      {"measurement": "plaque prevention", "setting": "[3]; both 0.5 and 1.0 micrograms/mL water", "value": "proven effective"},
      {"measurement": "prevention of plaque formation, 0.5 versus 1.0 micrograms/mL", "setting": "[3]; dog drinking water, all dogs regardless of size or age", "value": "statistically significantly identical"},
      {"measurement": "Halimeter VSC levels at the conclusion of the clinical trial", "setting": "[4]; 0-5 scale, 3 dogs of the iodine group, initial levels 4-5, not statistically significant", "value": "0-1"},
      {"measurement": "qualitative odor, final", "setting": "[4]; 0-5 scale, 5 iodine-treated dogs, initial smell 3-5", "value": "0-1"},
      {"measurement": "number of iodine-treated dogs with reduced oral smell or doggie breath or VSC/H2S", "setting": "[4]; of 10 iodine-treated dogs, 28 days", "value": 8}
    ]}
  ]
}
